According to patent US20230248726A1, “PHARMACEUTICAL COMPOSITION AND APPLICATION THEREOF” (SHANGHAI RAISING PHARMACEUTICAL CO., LTD., priority 2020, published 2023):
Counter-ions that a name gives are not always drawn.

System: APP/PS1/Tau mice
Assay: Morris water maze test
Type: in vivo
Details: for Time in the target quadrant / Times of crossing over the platform / latent period: APP/PS1/Tau mice, intragastric daily for 8 weeks, testing Day 6, n = 10, BTMP 200 mg/kg, VB1 200 mg/kg, donepezil hydrochloride 1.5 mg/kg, ½BTMP 100 mg/kg; for spatial memory and learning ability of the AD mice (result in words): Morris water maze, compared with the model group
Description: In water, rodents have a strong motivation to escape from the water environment, and can escape from the water environment in the fastest and most direct way. The process of learning to escape from the water environment reflects the learning ability of animals. Spatial positioning according to the surrounding environment and swimming to a safe place in the water (such as a platform) on purpose can reflect the spatial learning and memory ability of animals.
The test animals were male APP/PS1/Tau mice and C57BL/6 wild type mice. The mice were 8 months old, weighing […], and purchased from The Jackson laboratory.
App/PS1/Tau mice are APP/PS1/tau triple transgenic Alzheimer's disease (3×Tg-AD) model mice, whose AO deposition occurs several months earlier than the pathological change of the tau protein, and can more realistically simulate the clinical process and pathological changes of Alzheimer's disease.
Preparation of a 10 mg/ml vitamin B1 solution (dosage: 200 mg/kg): 500 mg of vitamin B1 was weighed, and 0.7% m/v CMC-Na was added to reach 50 ml, to obtain a 10 mg/ml solution.
Preparation of a 10 mg/ml BTMP suspension (dosage: 200 mg/kg): 500 mg of BTMP was weighed, and 0.7% m/v CMC-Na was added to reach 50 ml, to obtain a 10 mg/ml BTMP suspension.
Preparation of a 0.075 mg/ml donepezil hydrochloride suspension (dosage: 1.5 mg/kg): one donepezil hydrochloride tablet (containing 5 mg donepezil hydrochloride) was ground, and 0.7% m/v CMC-Na was added to reach 66.67 ml, to obtain a 0.075 mg/ml donepezil hydrochloride suspension.
(§1) Preparation of a 10 mg/ml BTMP suspension+0.075 mg/ml donepezil hydrochloride suspension (dosage: 200 mg/kg BTMP suspension+1.5 mg/kg donepezil hydrochloride suspension): a 20 mg/ml BTMP suspension and a 0.15 mg/ml donepezil hydrochloride suspension were respectively prepared, and equal volumes were evenly mixed before administration, to obtain a 10 mg/ml BTMP suspension+0.075 mg/ml donepezil hydrochloride suspension.
as §1, with “5” for “10”, “100” for “200”, “10” for “20”
The mice in the blank control group, the model group and the test groups were intragastrically administered according to the dosage/specification in 2.2. for 8 weeks, and the water maze training and testing were started in the last week of the administration. The water maze training and testing lasted for 6 days, with 5 days of training and 1 day of testing. In addition, during the water maze training and testing period (6 days in total), conditions such as the indoor lighting etc. were kept constant, and the room was kept quiet, so as to eliminate the interference of the environment and personnel.
(1) Pre-test preparation: an appropriate amount of water was placed in a water maze pool with water temperature being kept at 22±3° C., a platform was placed at a fixed position (the target quadrant) and 1 cm below the water surface, and titanium dioxide was added until water color was white, and the platform could not be seen clearly.
(2) Training period (Day 1 to Day 5): each mouse was placed on the platform for 15 s (to increase the mouse's sense of security on the platform) prior to the first quadrant training on each day, and then the mouse was placed in the quadrant where the platform located in the pool (head towards the wall), and a swimming time of 60 s was set. If it found the platform within 60 s and stayed for 5 s, it was considered as a success in finding the platform.
After the first quadrant training, the training in the remaining three quadrants was performed in turn, wherein it is not necessary to place the mice on the platform and hold for 15 s before training.

C/C(=C(\CCOP(=O)(O)O)SC(=O)c1ccccc1)N(C=O)Cc1cnc(C)nc1N [BTMP, S-2-[[(2-methyl-4-amino-5-pyrimidinyl)methyl]formylamino]-5-phosphonooxy-2,3-pentenyl-3-mercaptobenzoate]
Time in the target quadrant: 14.96 ± 1.50 s | Times of crossing over the platform: 2.10 ± 0.74 | latent period: 26.10 ± 1.85 s | spatial memory and learning ability of the AD mice (result in words): significantly improved

Cc1ncc(C[n+]2csc(CCO)c2C)c(N)n1 [VB1, vitamin B1]
Time in the target quadrant: 11.87 ± 1.17^*#& s | Times of crossing over the platform: 1.00 ± 0.67^*& | latent period: 35.10 ± 4.09^*#& s | spatial memory and learning ability of the AD mice (result in words): did not significantly improve

COc1cc2c(cc1OC)C(=O)C(CC1CCN(Cc3ccccc3)CC1)C2 (stereo not drawn) [Donepezil hydrochloride, donepezil hydrochloride]
Time in the target quadrant: 14.44 ± 1.11 s | Times of crossing over the platform: 1.80 ± 0.79 | latent period: 27.80 ± 2.04 s | spatial memory and learning ability of the AD mice (result in words): significantly improved
